Reference: ChEMBL document CHEMBL3046407, “Toxicity of monoterpenes against larvae and adults of Colorado potato beetle, Leptinotarsa decemlineata Say (Coleoptera: Chrysomelidae)” (2007)

Tests used:
Type in all cases: functional
[1] = system: Leptinotarsa decemlineata; experiment: Insecticidal activity against third-instar larval stage of Leptinotarsa decemlineata infested potato leaves assessed as mortality at 10 ul after 12 hr relative to control
[2] = system: Leptinotarsa decemlineata; experiment: Insecticidal activity against third-instar larval stage of Leptinotarsa decemlineata infested potato leaves assessed as mortality at 20 ul after 48 hr (reference value: […] +/- 3.3%)
[3] = system: Leptinotarsa decemlineata; experiment: Insecticidal activity against second-instar larval stage of Leptinotarsa decemlineata infested potato leaves assessed as mortality at 20 ul after 24 hr (reference value: […] +/- 3.3%)
[4] = system: Leptinotarsa decemlineata; experiment: Insecticidal activity against third-instar larval stage of Leptinotarsa decemlineata infested potato leaves assessed as mortality at 10 ul after 24 hr relative to control
[5] = system: Leptinotarsa decemlineata; experiment: Insecticidal activity against adult Leptinotarsa decemlineata infested potato leaves assessed as mortality at 10 ul after 96 hr relative to control
[6] = system: Leptinotarsa decemlineata; experiment: Insecticidal activity against first-instar larval stage of Leptinotarsa decemlineata infested potato leaves assessed as mortality at 20 ul after 24 hr relative to control
[7] = system: Leptinotarsa decemlineata; experiment: Insecticidal activity against first-instar larval stage of Leptinotarsa decemlineata infested potato leaves assessed as mortality at 10 ul after 48 hr relative to control
[8] = system: Leptinotarsa decemlineata; experiment: Insecticidal activity against first-instar larval stage of Leptinotarsa decemlineata infested potato leaves assessed as mortality at 20 ul after 12 hr relative to control
[9] = system: Leptinotarsa decemlineata; experiment: Insecticidal activity against adult Leptinotarsa decemlineata infested potato leaves assessed as mortality at 10 ul after 48 hr relative to control
[10] = system: Leptinotarsa decemlineata; experiment: Insecticidal activity against second-instar larval stage of Leptinotarsa decemlineata infested potato leaves assessed as mortality at 10 ul after 12 hr relative to control
[11] = system: Leptinotarsa decemlineata; experiment: Insecticidal activity against third-instar larval stage of Leptinotarsa decemlineata infested potato leaves assessed as mortality at 10 ul after 96 hr (reference value: […] +/- 3.3%)
[12] = system: Leptinotarsa decemlineata; experiment: Insecticidal activity against first-instar larval stage of Leptinotarsa decemlineata infested potato leaves assessed as mortality at 10 ul after 96 hr relative to control
[13] = system: Leptinotarsa decemlineata; experiment: Insecticidal activity against second-instar larval stage of Leptinotarsa decemlineata infested potato leaves assessed as mortality at 20 ul after 12 hr relative to control
[14] = system: Leptinotarsa decemlineata; experiment: Insecticidal activity against first-instar larval stage of Leptinotarsa decemlineata infested potato leaves assessed as mortality at 20 ul after 48 hr relative to control
[15] = system: Leptinotarsa decemlineata; experiment: Insecticidal activity against second-instar larval stage of Leptinotarsa decemlineata infested potato leaves assessed as mortality at 10 ul after 24 hr (reference value: […] +/- 3.3%)
[16] = system: Leptinotarsa decemlineata; experiment: Insecticidal activity against second-instar larval stage of Leptinotarsa decemlineata infested potato leaves assessed as mortality at 20 ul after 96 hr (reference value: […] +/- 3.3%)
[17] = system: Leptinotarsa decemlineata; experiment: Insecticidal activity against third-instar larval stage of Leptinotarsa decemlineata infested potato leaves assessed as mortality at 20 ul after 12 hr relative to control
[18] = system: Leptinotarsa decemlineata; experiment: Insecticidal activity against second-instar larval stage of Leptinotarsa decemlineata infested potato leaves assessed as mortality at 10 ul after 96 hr (reference value: […] +/- 3.3%)
[19] = system: Leptinotarsa decemlineata; experiment: Insecticidal activity against third-instar larval stage of Leptinotarsa decemlineata infested potato leaves assessed as mortality at 20 ul after 96 hr (reference value: […] +/- 3.3%)
[20] = system: Leptinotarsa decemlineata; experiment: Insecticidal activity against second-instar larval stage of Leptinotarsa decemlineata infested potato leaves assessed as mortality at 10 ul after 48 hr (reference value: […] +/- 3.3%)
[21] = system: Leptinotarsa decemlineata; experiment: Insecticidal activity against adult Leptinotarsa decemlineata infested potato leaves assessed as mortality at 20 ul after 12 hr relative to control
[22] = system: Leptinotarsa decemlineata; experiment: Insecticidal activity against adult Leptinotarsa decemlineata infested potato leaves assessed as mortality at 20 ul after 96 hr relative to control
[23] = system: Leptinotarsa decemlineata; experiment: Insecticidal activity against first-instar larval stage of Leptinotarsa decemlineata infested potato leaves assessed as mortality at 10 ul after 24 hr relative to control
[24] = system: Leptinotarsa decemlineata; experiment: Insecticidal activity against adult Leptinotarsa decemlineata infested potato leaves assessed as mortality at 10 ul after 24 hr relative to control
[25] = system: Leptinotarsa decemlineata; experiment: Insecticidal activity against adult Leptinotarsa decemlineata infested potato leaves assessed as mortality at 20 ul after 24 hr relative to control
[26] = system: Leptinotarsa decemlineata; experiment: Insecticidal activity against third-instar larval stage of Leptinotarsa decemlineata infested potato leaves assessed as mortality at 20 ul after 24 hr relative to control
[27] = system: Leptinotarsa decemlineata; experiment: Insecticidal activity against second-instar larval stage of Leptinotarsa decemlineata infested potato leaves assessed as mortality at 20 ul after 48 hr (reference value: […] +/- 3.3%)
[28] = system: Leptinotarsa decemlineata; experiment: Insecticidal activity against first-instar larval stage of Leptinotarsa decemlineata infested potato leaves assessed as mortality at 20 ul after 96 hr relative to control
[29] = system: Leptinotarsa decemlineata; experiment: Insecticidal activity against adult Leptinotarsa decemlineata infested potato leaves assessed as mortality at 20 ul after 48 hr relative to control
[30] = system: Leptinotarsa decemlineata; experiment: Insecticidal activity against third-instar larval stage of Leptinotarsa decemlineata infested potato leaves assessed as mortality at 10 ul after 48 hr (reference value: […] +/- 3.3%)
[31] = system: Leptinotarsa decemlineata; experiment: Insecticidal activity against adult Leptinotarsa decemlineata infested potato leaves assessed as mortality at 10 ul after 12 hr relative to control
[32] = system: Leptinotarsa decemlineata; experiment: Insecticidal activity against first-instar larval stage of Leptinotarsa decemlineata infested potato leaves assessed as mortality at 10 ul after 12 hr relative to control

SMILES	mortality [1] [%]	mortality [2] [%]	mortality [3] [%]	mortality [4] [%]	mortality [5] [%]	mortality [6] [%]	mortality [7] [%]	mortality [8] [%]	mortality [9] [%]	mortality [10] [%]	mortality [11] [%]	mortality [12] [%]	mortality [13] [%]	mortality [14] [%]	mortality [15] [%]	mortality [16] [%]	mortality [17] [%]	mortality [18] [%]	mortality [19] [%]	mortality [20] [%]	other results
C/C=C(C)/C=C/C=C(C)C [ALLO-OCIMENE]	0	23.3	43.3	0	3.3	33.3	46.7	16.7	3.3	23.3	0	56.7	30	46.7	40	60	23.3	66.7	26.7	50	mortality [21]: 3.3%; mortality [22]: 23.3%; mortality [23]: 33.3%; mortality [24]: 3.3%; mortality [25]: 20%; mortality [26]: 23.3%; mortality [27]: 53.3%; mortality [28]: 56.7%; mortality [29]: 20%; mortality [30]: 0%; mortality [31]: 3.3%; mortality [32]: 13.3%
CC(=O)OC/C=C(\C)CCC=C(C)C [GERANYL ACETATE]	6.7	16.7	10	10	10	6.7	0	0	10	3.3	13.3	6.7	6.7	10	3.3	23.3	6.7	20	16.7	20	mortality [21]: 3.3%; mortality [22]: 26.7%; mortality [23]: 0%; mortality [24]: 3.3%; mortality [25]: 10%; mortality [26]: 16.7%; mortality [27]: 23.3%; mortality [28]: 16.7%; mortality [29]: 16.7%; mortality [30]: 13.3%; mortality [31]: 0%; mortality [32]: 0%
CC(=O)OC/C=C(/C)CCC=C(C)C [NERYL ACETATE]	0	33.3	3.3	0	70	10	0	6.7	26.7	0	10	0	3.3	10	0	6.7	23.3	0	43.3	0	mortality [21]: 3.3%; mortality [22]: 30%; mortality [23]: 0%; mortality [24]: 20%; mortality [25]: 10%; mortality [26]: 23.3%; mortality [27]: 3.3%; mortality [28]: 10%; mortality [29]: 13.3%; mortality [30]: 6.7%; mortality [31]: 0%; mortality [32]: 0%
CC1=CCC(O)(C(C)C)CC1 (stereo unspecified) [TERPINEOL]	6.7	26.7	100	16.7	100	86.7	73.3	40	93.3	33.3	23.3	100	60	100	83.3	100	3.3	100	40	100	mortality [21]: 16.7%; mortality [22]: 100%; mortality [23]: 40%; mortality [24]: 76.7%; mortality [25]: 43.3%; mortality [26]: 23.3%; mortality [27]: 100%; mortality [28]: 100%; mortality [29]: 80%; mortality [30]: 23.3%; mortality [31]: 3.3%; mortality [32]: 0%
CC1=CCC2CC1C2(C)C (stereo not drawn) [ALPHA-PINENE]	3.3	30	70	3.3	100	43.3	63.3	13.3	100	26.7	6.7	66.7	20	56.7	50	86.7	13.3	66.7	36.7	63.3	mortality [21]: 96.7%; mortality [22]: 100%; mortality [23]: 50%; mortality [24]: 100%; mortality [25]: 100%; mortality [26]: 16.7%; mortality [27]: 80%; mortality [28]: 66.7%; mortality [29]: 100%; mortality [31]: 100%; mortality [32]: 26.7%
CC(C)=CCC[C@@H](C)CC=O [CITRONELLAL]	20	26.7	80	20	100	76.7	76.7	33.3	100	20	26.7	86.7	23.3	90	53.3	93.3	10	80	33.3	76.7	mortality [21]: 16.7%; mortality [22]: 86.7%; mortality [23]: 43.3%; mortality [24]: 90%; mortality [26]: 20%; mortality [27]: 93.3%; mortality [28]: 100%; mortality [29]: 80%; mortality [30]: 20%; mortality [31]: 6.7%; mortality [32]: 6.7%
C=CC(C)(CCC=C(C)C)OC(C)=O (stereo unspecified) [LINALYL ACETATE]	23.3	76.7	63.3	30	23.3	63.3	70	26.7	16.7	20	33.3	86.7	30	93.3	36.7	93.3	30	86.7	83.3	80	mortality [21]: 10%; mortality [22]: 70%; mortality [23]: 30%; mortality [24]: 0%; mortality [25]: 23.3%; mortality [26]: 73.3%; mortality [27]: 93.3%; mortality [28]: 69.3%; mortality [29]: 63.3%; mortality [31]: 0%; mortality [32]: 16.7%
